Values quoted from earlier work in patent publication US20130195925A1, “ANTI AGING APPLICATION AND METHOD FOR TREATING AGING” (VASKIN, LLC, priority 2011, published 2013).
Each block holds one compound with its values, some of them ahead of it.

What was measured:
[1] = thought to be; compared with vitamin E
[2] = tested on: UVB-induced pigmented skins of brownish guinea pigs; conditions: 0.5% Glabridin solution applied topically; backs of brownish guinea pigs
[3] = tested on: co-culture model of melanocytes and keratinocytes; conditions: fluorochrome transfer, flow cytometry
stem cell factor = conditions: human keratinocyte cell culture
wounds = conditions: solution containing 5%
[4] = in vivo
[5] = in vivo; remark: listed apart in the source

Compound: O=C(O[C@@H]1Cc2c(O)cc(O)cc2O[C@@H]1c1cc(O)c(O)c(O)c1)c1cc(O)c(O)c(O)c1 [EGCG, Epigallocatechin galate]
power for neutralizing free radicals relative to vitamin E [1]: 200 times

Compound: CC1(C)C=Cc2c(ccc3c2OC[C@@H](c2ccc(O)cc2O)C3)O1 [Glabridin]
pigmentation induced by UVB radiation [2]: significantly reduced pigmentation

Compound: NC(=O)c1cccnc1 [Niacinamide]
downregulation of the amount of melanosomes transferred [3]: 35%-68%

Compound: COc1cc(CCC(=O)CC(=O)CCc2ccc(O)c(OC)c2)ccc1O [Tetrahydrocurcumin]
safety for topical use: no irritant or sensitization side effects

Compound: C=CCCCCCCCCC(=O)N[C@@H](Cc1ccccc1)C(=O)O [Undecylenoyl phenylalanine]
gene expression and protein release of stem cell factor (stem cell factor): suppresses

Compound: CC(=O)Oc1c(C)c(C)c2c(c1C)CCC(C)(CCC[C@H](C)CCC[C@H](C)CCCC(C)C)O2 (some centres unmarked) [Vitamin E acetate, Tocopheryl acetate]
wound healing time (wounds): decreased the healing time required

dermatitis [4]: can lead to dermatitis in some people
Compound: O=c1cc(CO)occ1O [kojic acid]
carcinogenic properties [5]: may have some carcinogenic properties
